In patent US11382328B2, “Rapid drug discovery methods for pathogen inactivation” (priority 2019, dated 2022):
Read-outs that look alike come from different tables or passages of the source.

Tested on: E. coli strain W3110
Test: Synergy assays: Biolog chemical sensitivity panels with Group IB metal, coefficient of drug interaction (CDI) from relative growth
Assay type: cell-based
Settings: for CDI (coefficient of drug interaction), copper mixed with biocide: Copper (mM) section
[1] = 1st of 3 copper concentrations (value not shown), 1st of four biocide concentrations
[2] = 1st of 3 copper concentrations (value not shown), 2nd of four biocide concentrations
[3] = 1st of 3 copper concentrations (value not shown), 3rd of four biocide concentrations
[4] = 1st of 3 copper concentrations (value not shown), 4th of four biocide concentrations
[5] = 2nd of 3 copper concentrations (value not shown), 1st of four biocide concentrations
[6] = 2nd of 3 copper concentrations (value not shown), 2nd of four biocide concentrations
[7] = 2nd of 3 copper concentrations (value not shown), 3rd of four biocide concentrations
[8] = 2nd of 3 copper concentrations (value not shown), 4th of four biocide concentrations
[9] = 3rd of 3 copper concentrations (value not shown), 1st of four biocide concentrations
[10] = 3rd of 3 copper concentrations (value not shown), 2nd of four biocide concentrations
[11] = 3rd of 3 copper concentrations (value not shown), 3rd of four biocide concentrations
[12] = 3rd of 3 copper concentrations (value not shown), 4th of four biocide concentrations
[13] = Gold section of Table 5, first of three gold concentrations (μM, value not given), biocide concentration 1 of 4
[14] = Gold section of Table 5, first of three gold concentrations (μM, value not given), biocide concentration 2 of 4
[15] = Gold section of Table 5, first of three gold concentrations (μM, value not given), biocide concentration 3 of 4
[16] = Gold section of Table 5, first of three gold concentrations (μM, value not given), biocide concentration 4 of 4
[17] = Gold section of Table 5, second of three gold concentrations (μM, value not given), biocide concentration 1 of 4
[18] = Gold section of Table 5, second of three gold concentrations (μM, value not given), biocide concentration 2 of 4
[19] = Gold section of Table 5, second of three gold concentrations (μM, value not given), biocide concentration 3 of 4
[20] = Gold section of Table 5, second of three gold concentrations (μM, value not given), biocide concentration 4 of 4
[21] = Gold section of Table 5, third of three gold concentrations (μM, value not given), biocide concentration 1 of 4
[22] = Gold section of Table 5, third of three gold concentrations (μM, value not given), biocide concentration 2 of 4
[23] = Gold section of Table 5, third of three gold concentrations (μM, value not given), biocide concentration 3 of 4
[24] = Gold section of Table 5, third of three gold concentrations (μM, value not given), biocide concentration 4 of 4
[25] = Silver 0.5 μM, biocide concentration 1 of 4
[26] = Silver 0.5 μM, biocide concentration 2 of 4
[27] = Silver 0.5 μM, biocide concentration 3 of 4
[28] = Silver 0.5 μM, biocide concentration 4 of 4
[29] = Silver 1.0 μM, biocide concentration 2 of 4
[30] = Silver 1.0 μM, biocide concentration 3 of 4
[31] = Silver 1.0 μM, biocide concentration 4 of 4
[32] = Silver 5.0 μM, biocide concentration 1 of 4
[33] = Silver 5.0 μM, biocide concentration 2 of 4
[34] = Silver 5.0 μM, biocide concentration 3 of 4
[35] = Silver 5.0 μM, biocide concentration 4 of 4
[36] = Gold 50 μM, biocide concentration 3 of 4, E. coli
[37] = Gold 50 μM, biocide concentration 4 of 4, E. coli
[38] = Gold 5 μM, biocide concentration 3 of 4, E. coli
[39] = Gold 25 μM, biocide concentration 3 of 4, E. coli
[40] = Gold 25 μM, biocide concentration 4 of 4, E. coli
[41] = Silver 0.5 μM, 3rd of four biocide concentrations, E. coli
[42] = Silver 0.5 μM, 4th of four biocide concentrations, E. coli
[43] = Silver 1.0 μM, 3rd of four biocide concentrations, E. coli
[44] = Silver 1.0 μM, 4th of four biocide concentrations, E. coli
[45] = Silver 5.0 μM, 3rd of four biocide concentrations, E. coli
[46] = Silver 5.0 μM, 4th of four biocide concentrations, E. coli

`CN(C)C(=O)/N=N/C(=O)N(C)C` [diamide] was tested, and the “CDI (coefficient of drug interaction), copper mixed with biocide” value (from here on “CDI … with biocide”) [1] was 1.02, the “CDI … with biocide” value [2] was 0.98 and the “CDI … with biocide” value [3] was 0.96. The “CDI … with biocide” value [4] was 0.99, the “CDI … with biocide” value [5] was 0.78 and the “CDI … with biocide” value [6] was 0.72. For the same molecule, the “CDI … with biocide” value [7] was “Tox”, the “CDI … with biocide” value [8] was “Tox” and the “CDI … with biocide” value [9] was 0.52. The “CDI … with biocide” value [10] was 0.51, the “CDI … with biocide” value [11] was 0.52 and the “CDI … with biocide” value [12] was 0.56. For the same molecule, the “CDI (coefficient of drug interaction)” value [13] was 0.99, the “CDI (coefficient of drug interaction)” value [14] was 0.86 and the “CDI (coefficient of drug interaction)” value [15] was “Tox”. For the same molecule, the “CDI (coefficient of drug interaction)” value [16] was “Tox”, the “CDI (coefficient of drug interaction)” value [17] was 0.98 and the “CDI (coefficient of drug interaction)” value [18] was 0.89. For the same molecule, the “CDI (coefficient of drug interaction)” value [19] was “Tox”, the “CDI (coefficient of drug interaction)” value [20] was “Tox” and the “CDI (coefficient of drug interaction)” value [21] was 0.98. The “CDI (coefficient of drug interaction)” value [22] was 0.93, the “CDI (coefficient of drug interaction)” value [23] was “Tox” and the “CDI (coefficient of drug interaction)” value [24] was “Tox”. For the same molecule, the CDI [25] was 1.19, the CDI [26] was 1.07 and the CDI [27] was “Tox”. The CDI [28] was “Tox”, the CDI (Silver 1.0 μM, biocide concentration 1 of 4) was 1.01 and the CDI [29] was 0.90. The CDI [30] was “Tox”, the CDI [31] was “Tox” and the CDI [32] was 0.97. For the same molecule, the CDI [33] was 0.40, the CDI [34] was “Tox” and the CDI [35] was “Tox”.
`CCn1cc(C(=O)O)c(=O)c2cc(F)c(N3CCNCC3)nc21` [enoxacin] was tested, and the “CDI (coefficient of drug interaction)” value [36] was “Tox” and the “CDI (coefficient of drug interaction)” value [37] was “Tox”.
With gentamicin the “CDI … with biocide” value [1] was 0.89, the “CDI … with biocide” value [2] was 0.87 and the “CDI … with biocide” value [3] was 0.79. The “CDI … with biocide” value [4] was 0.86, the “CDI … with biocide” value [5] was 0.78 and the “CDI … with biocide” value [6] was 0.80. For the same molecule, the “CDI … with biocide” value [7] was 0.74, the “CDI … with biocide” value [8] was 1.54 and the “CDI … with biocide” value [9] was 0.61. For the same molecule, the “CDI … with biocide” value [10] was 0.59, the “CDI … with biocide” value [11] was 0.58 and the “CDI … with biocide” value [12] was 0.61. The “CDI (coefficient of drug interaction)” value [13] was 0.97, the “CDI (coefficient of drug interaction)” value [14] was 1.00 and the “CDI (coefficient of drug interaction)” value [15] was 0.99. The “CDI (coefficient of drug interaction)” value [17] was 0.97, the “CDI (coefficient of drug interaction)” value [18] was 0.99 and the “CDI (coefficient of drug interaction)” value [19] was 1.00. For the same molecule, the “CDI (coefficient of drug interaction)” value [20] was 1.00, the “CDI (coefficient of drug interaction)” value [22] was 0.97 and the “CDI (coefficient of drug interaction)” value [23] was 1.00. The CDI [25] was 0.87, the CDI [26] was 0.86 and the CDI [27] was 0.81. The CDI [28] was 0.79, the CDI [29] was 0.98 and the CDI [30] was 0.42. It also gave a CDI [31] of 0.38, a CDI [32] of 1.00 and a CDI [33] of 0.82. The CDI [34] was 0.74 and the CDI [35] was 0.34.
For acriflavine, the “CDI … with biocide” value [1] was 1.00, the “CDI … with biocide” value [2] was 1.03 and the “CDI … with biocide” value [3] was 0.95. The “CDI … with biocide” value [5] was 0.88, the “CDI … with biocide” value [6] was 0.91 and the “CDI … with biocide” value [7] was 0.95. For the same molecule, the “CDI … with biocide” value [9] was 0.89, the “CDI … with biocide” value [10] was 0.82 and the “CDI … with biocide” value [11] was 0.81. For the same molecule, the “CDI … with biocide” value [12] was 0.78, the “CDI (coefficient of drug interaction)” value (Gold 5 μM, biocide concentration 1 of 4, E. coli) was 0.92 and the “CDI (coefficient of drug interaction)” value (Gold 5 μM, biocide concentration 2 of 4, E. coli) was 0.94. The “CDI (coefficient of drug interaction)” value [38] was 0.94, the “CDI (coefficient of drug interaction)” value (Gold 25 μM, biocide concentration 1 of 4, E. coli) was 0.96 and the “CDI (coefficient of drug interaction)” value [39] was 0.96. For the same molecule, the “CDI (coefficient of drug interaction)” value [40] was 0.87, the “CDI (coefficient of drug interaction)” value (Gold 50 μM, biocide concentration 1 of 4, E. coli) was 0.86 and the “CDI (coefficient of drug interaction)” value (Gold 50 μM, biocide concentration 2 of 4, E. coli) was 1.00. The “CDI (coefficient of drug interaction)” value [36] was 0.96, the “CDI (coefficient of drug interaction)” value [37] was 0.84 and the “CDI (coefficient of drug interaction), silver + biocide” value (“CDI … silver + biocide” for short) (Silver 0.5 μM, 1st of four biocide concentrations, E. coli) was 0.99. For the same molecule, the “CDI … silver + biocide” value (Silver 0.5 μM, 2nd of four biocide concentrations, E. coli) was 1.03, the “CDI … silver + biocide” value [41] was 0.86 and the “CDI … silver + biocide” value [42] was 0.73. For the same molecule, the “CDI … silver + biocide” value (Silver 1.0 μM, 1st of four biocide concentrations, E. coli) was 0.97, the “CDI … silver + biocide” value (Silver 1.0 μM, 2nd of four biocide concentrations, E. coli) was 0.95 and the “CDI … silver + biocide” value [43] was 0.87. For the same molecule, the “CDI … silver + biocide” value [44] was 0.59, the “CDI … silver + biocide” value (Silver 5.0 μM, 1st of four biocide concentrations, E. coli) was 0.96 and the “CDI … silver + biocide” value [45] was 0.54. The “CDI … silver + biocide” value [46] was 0.24.
For `C[n+]1cc2c3c(ccc2c2ccc4cc5c(cc4c21)OCO5)OCO3` [sanguinarine], the “CDI … with biocide” value [4] was “Tox”, the “CDI … with biocide” value [7] was “Tox” and the “CDI … with biocide” value [8] was “Tox”. For the same molecule, the “CDI … with biocide” value [12] was “Tox”, the “CDI (coefficient of drug interaction)” value [15] was “Tox” and the “CDI (coefficient of drug interaction)” value [16] was “Tox”. The “CDI (coefficient of drug interaction)” value [19] was “Tox”, the “CDI (coefficient of drug interaction)” value [20] was “Tox” and the “CDI (coefficient of drug interaction)” value [23] was “Tox”. The “CDI (coefficient of drug interaction)” value [24] was “Tox”, the “CDI … silver + biocide” value [41] was “Tox” and the “CDI … silver + biocide” value [42] was “Tox”. The “CDI … silver + biocide” value [43] was “Tox”, the “CDI … silver + biocide” value [44] was “Tox” and the “CDI … silver + biocide” value [45] was “Tox”. The “CDI … silver + biocide” value [46] was “Tox”.
For hydroxylamine, the “CDI (coefficient of drug interaction)” value was 0.99.
`CCN(CC)C(=S)SSC(=S)N(CC)CC` [disulfiram] was tested, and the “CDI … with biocide” value [8] was “Tox”, the “CDI (coefficient of drug interaction)” value [38] was “Tox” and the “CDI (coefficient of drug interaction)” value (Gold 5 μM, biocide concentration 4 of 4, E. coli) was “Tox”. The “CDI (coefficient of drug interaction)” value [39] was “Tox”, the “CDI (coefficient of drug interaction)” value [40] was “Tox” and the “CDI … silver + biocide” value [42] was “Tox”. For the same molecule, the “CDI … silver + biocide” value [44] was “Tox”, the “CDI … silver + biocide” value [46] was “Tox” and the “CDI (coefficient of drug interaction)” value ([…], biocide concentration 3 of 4, E. coli) was “Tox”. For the same molecule, the “CDI (coefficient of drug interaction)” value ([…], biocide concentration 4 of 4, E. coli) was “Tox”.
In the case of `Nc1nc[nH]n1` [3-Amino-1,2,4-triazole], the “CDI … with biocide” value [4] is reported as “Tox”, the “CDI … with biocide” value [12] is reported as “Tox” and the “CDI (coefficient of drug interaction)” value [16] is reported as “Tox”. For the same molecule, the “CDI (coefficient of drug interaction)” value [20] was “Tox”, the “CDI (coefficient of drug interaction)” value [24] was “Tox” and the CDI [28] was “Tox”. The CDI [31] was “Tox” and the CDI [35] was “Tox”.
In the case of `O=C(O)CI` [lodoacetate], the “CDI (coefficient of drug interaction)” value [13] is reported as 0.77, the “CDI (coefficient of drug interaction)” value [14] is reported as “Tox” and the “CDI (coefficient of drug interaction)” value [15] is reported as “Tox”. For the same molecule, the “CDI (coefficient of drug interaction)” value [16] was “Tox”, the “CDI (coefficient of drug interaction)” value [17] was 1.00 and the “CDI (coefficient of drug interaction)” value [18] was “Tox”. The “CDI (coefficient of drug interaction)” value [19] was “Tox”, the “CDI (coefficient of drug interaction)” value [20] was “Tox” and the “CDI (coefficient of drug interaction)” value [21] was 0.88. For the same molecule, the “CDI (coefficient of drug interaction)” value [22] was “Tox”, the “CDI (coefficient of drug interaction)” value [23] was “Tox” and the “CDI (coefficient of drug interaction)” value [24] was “Tox”.
